The structures appear in SMILES notation.

T1 sequence (P56817 46-457 limits assumed): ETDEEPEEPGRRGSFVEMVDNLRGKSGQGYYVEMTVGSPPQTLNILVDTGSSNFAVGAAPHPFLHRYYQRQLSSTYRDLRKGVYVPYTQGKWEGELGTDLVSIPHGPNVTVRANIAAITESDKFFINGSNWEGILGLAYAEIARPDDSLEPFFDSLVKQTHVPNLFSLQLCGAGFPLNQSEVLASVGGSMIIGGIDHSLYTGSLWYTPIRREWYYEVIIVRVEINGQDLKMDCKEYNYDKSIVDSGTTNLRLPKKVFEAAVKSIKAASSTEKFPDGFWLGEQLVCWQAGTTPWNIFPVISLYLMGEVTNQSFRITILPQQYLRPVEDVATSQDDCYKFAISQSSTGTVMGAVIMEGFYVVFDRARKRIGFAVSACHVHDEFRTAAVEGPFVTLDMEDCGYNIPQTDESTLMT

The assay addresses T1, BACE-1 enzyme (Homo sapiens, UniProt P56817).
T1 construct: purchased R & D Systems 931AS
Put plainly: BACE Fluorescence Resonance Energy Transfer (FRET) Assay. It counts as biochemical. As to conditions: pH 4-4.5, 30 min pre-incubation, about 1.5 hours reaction. Summed up:
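BACE-1 enzyme pre-incubated 30 min with compound in 7.5% DMSO in 50 mM sodium acetate pH 4-4.5, 0.01% CHAPS, 0.0125% Triton X-100, 0.006% EDTA. Rhodamine/quencher peptide substrate added; ~1.5 h at room temperature, fluorescence read at 540/585 nm. IC50 or percent inhibition at one concentration.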
Molecule `COc1cc(F)ccc1-c1ccc2[nH]c(NC(=O)c3cn4c(C)cccc4n3)nc2c1` [Example 105, 5-Methyl-imidazo[1,2-a]pyridine-2-carboxylic acid [5-(4-fluoro-2-methoxy-phenyl)-1H-benzoimidazol-2-yl]-amide] yielded an IC50 of 1.79 µM.

`Cc1cccn2cc(C(=O)Nc3nc4cc(N5CCC(c6ccccc6)CC5)ccc4[nH]3)nc12` [Example 37, 8-Methyl-imidazo[1,2-a]pyridine-2-carboxylic acid [5-(4-phenyl-piperidin-1-yl)-1H-benzoimidazol-2-yl]-amide]: the IC50 is 1.8 µM.

For the molecule `CN(C)c1cc(F)cn2cc(C(=O)Nc3nc4cc(-c5cc(F)cc(Cl)c5)ccc4[nH]3)nc12` [Example 131, 8-Dimethylamino-6-fluoro-imidazo[1,2-a]pyridine-2-carboxylic acid [5-(3-chloro-5-fluoro-phenyl)-1H-benzoimidazol-2-yl]-amide], it took 1.01 µM to reach half-maximal inhibition (IC50).

For the molecule `COCCn1c(NC(=O)c2cn3c(C)cccc3n2)nc2ccc(-c3cccc(C(F)(F)F)c3)cc21` [Example 239, 5-Methyl-imidazo[1,2-a]pyridine-2-carboxylic acid [1-(2-methoxy-ethyl)-6-(3-trifluoromethyl-phenyl)-1H-benzoimidazol-2-yl]-amide], the IC50 was found to be 0.7 µM.

As for `CN(C)CCOc1cc(F)cn2cc(C(=O)Nc3nc4cc(-c5cc(F)cc(Cl)c5)ccc4[nH]3)nc12` [Example 141, 8-(2-Dimethylamino-ethoxy)-6-fluoro-imidazo[1,2-a]pyridine-2-carboxylic acid [5-(3-chloro-5-fluoro-phenyl)-1H-benzoimidazol-2-yl]-amide], the IC50 worked out at 0.66 µM.

For the molecule `Cc1cccn2cc(C(=O)Nc3nc4cc(OCc5ccc(C(F)(F)F)cc5)ccc4[nH]3)nc12` [Example 22, 8-Methyl-imidazo[1,2-a]pyridine-2-carboxylic acid [5-(4-trifluoromethyl-benzyloxy)-1H-benzoimidazol-2-yl]-amide], it took 0.19 µM to reach half-maximal inhibition (IC50).

The molecule `O=C(Nc1nc2cc(-c3cccc(Cl)c3)ccc2[nH]1)c1cn2cc(OCCOC3CCCCO3)ccc2n1` (centres unmarked) [Example 234, 6-[2-(Tetrahydro-pyran-2-yloxy)-ethoxy]-imidazo[1,2-a]pyridine-2-carboxylic acid [5-(3-chloro-phenyl)-1H-benzoimidazol-2-yl]-amide] returned an IC50 of 0.35 µM.

Consider `Cc1cccc2nc(C(=O)Nc3nc4cc(C5CCCC5)ccc4[nH]3)cn12` [Example 118, 5-Methyl-imidazo[1,2-a]pyridine-2-carboxylic acid (5-cyclopentyl-1H-benzoimidazol-2-yl)-amide], for which the IC50 amounted to 0.99 µM.

The molecule `Cc1cccc2nc(C(=O)Nc3nc4cc(-c5cccc(OC6CCCCC6)c5)ccc4[nH]3)cn12` [Example 40, 5-Methyl-imidazo[1,2-a]pyridine-2-carboxylic acid [5-(3-cyclohexyloxy-phenyl)-1H-benzoimidazol-2-yl]-amide] came in with an IC50 of 2.55 µM.

Molecule `CO[C@H]1CCN(c2cc(F)cn3cc(C(=O)Nc4nc5cc(-c6cc(F)cc(Cl)c6)ccc5[nH]4)nc23)C1` [Example 159, 6-Fluoro-8-((S)-3-methoxy-pyrrolidin-1-yl)-imidazo[1,2-a]pyridine-2-carboxylic acid [5-(3-chloro-5-fluoro-phenyl)-1H-benzoimidazol-2-yl]-amide] registered an IC50 of 0.34 µM.

Consider `O=C(Nc1nc2cc(-c3cc(F)cc(Cl)c3)ccc2[nH]1)c1cn2cc(F)cc(N3CCC(O)CC3)c2n1` [Example 154, 6-Fluoro-8-(4-hydroxy-piperidin-1-yl)-imidazo[1,2-a]pyridine-2-carboxylic acid [5-(3-chloro-5-fluoro-phenyl)-1H-benzoimidazol-2-yl]-amide], for which the IC50 stood at 1.33 µM. This IC50 is about 3.9-fold higher than that of the molecule before.

Molecule `O=C(Nc1nc2cc(-c3cccc(C(F)(F)F)c3)ccc2[nH]1)c1cn2c(CNCc3ccccc3)cccc2n1` [Example 173, 5-(Benzylamino-methyl)-imidazo[1,2-a]pyridine-2-carboxylic acid [5-(3-trifluoromethyl-phenyl)-1H-benzoimidazol-2-yl]-amide] had an IC50 of 0.57 µM.

Take `O=C(Nc1nc2cc(-c3cccc(C(F)(F)F)c3)ccc2[nH]1)c1cn2cc(Cl)ccc2n1` [Example 34, 6-Chloro-imidazo[1,2-a]pyridine-2-carboxylic acid [5-(3-trifluoromethyl-phenyl)-1H-benzoimidazol-2-yl]-amide]: inhibition was half-maximal at 2.53 µM (IC50).

Regarding `CO[C@H]1CCN(c2ccc3nc(C(=O)Nc4nc5cc(-c6cccc(Cl)c6)ccc5[nH]4)cn3c2)C1` [Example 233, 6-((S)-3-Methoxy-pyrrolidin-1-yl)-imidazo[1,2-a]pyridine-2-carboxylic acid [5-(3-chloro-phenyl)-1H-benzoimidazol-2-yl]-amide], the IC50 amounted to 0.41 µM. This IC50 lies about 6.2-fold lower than the previous one.

Regarding `COCCNC(=O)c1cccn2cc(C(=O)Nc3nc4cc(-c5cccc(C(F)(F)F)c5)ccc4[nH]3)nc12` [Example 231, Imidazo[1,2-a]pyridine-2,8-dicarboxylic acid 8-[(2-methoxy-ethyl)-amide] 2-{[5-(3-trifluoromethyl-phenyl)-1H-benzoimidazol-2-yl]-amide}], the IC50 was found to be 0.31 µM.

Regarding `CCOc1cccc2nc(C(=O)Nc3nc4cc(-c5cccc(C(F)(F)F)c5)ccc4[nH]3)cn12` [Example 137, 5-Ethoxy-imidazo[1,2-a]pyridine-2-carboxylic acid [5-(3-trifluoromethyl-phenyl)-1H-benzoimidazol-2-yl]-amide], half-maximal inhibition (IC50) was put at 1.39 µM.

Consider `O=C(Nc1nc2cc(-c3cc(F)cc(Cl)c3)ccc2[nH]1)c1cn2c(N3CC[C@H](O)C3)cccc2n1` [Example 155, 5-((S)-3-Hydroxy-pyrrolidin-1-yl)-imidazo[1,2-a]pyridine-2-carboxylic acid [5-(3-chloro-5-fluoro-phenyl)-1H-benzoimidazol-2-yl]-amide], for which it took 0.25 µM to reach half-maximal inhibition (IC50).

In the case of `CC(C)(C)NCc1cccn2cc(C(=O)Nc3nc4cc(-c5cccc(C(F)(F)F)c5)ccc4[nH]3)nc12` [Example 193, 8-(tert-Butylamino-methyl)-imidazo[1,2-a]pyridine-2-carboxylic acid [5-(3-trifluoromethyl-phenyl)-1H-benzoimidazol-2-yl]-amide], it took 1.65 µM to reach half-maximal inhibition (IC50).

Molecule `COCCOc1cc(F)cn2cc(C(=O)Nc3nc4cc(-c5cc(F)cc(Cl)c5)ccc4[nH]3)nc12` [Example 140, 6-Fluoro-8-(2-methoxy-ethoxy)-imidazo[1,2-a]pyridine-2-carboxylic acid [5-(3-chloro-5-fluoro phenyl)-1H-benzoimidazol-2-yl]-amide] came in with an IC50 of 0.25 µM.

`O=C(Nc1nc2cc(OCc3cc(F)cc(F)c3)ccc2[nH]1)c1cn2cc(Cl)ccc2n1` [Example 16, 6-Chloro-imidazo[1,2-a]pyridine-2-carboxylic acid [5-(3,5-difluoro-benzyloxy)-1H-benzoimidazol-2-yl]-amide] displayed an IC50 of 0.17 µM.

As for `Cc1cc(OCCN2CCCCC2)c2nc(C(=O)Nc3nc4cc(-c5cc(F)cc(Cl)c5)ccc4[nH]3)cn2c1` [Example 149, 6-Methyl-8-(2-piperidin-1-yl-ethoxy)-imidazo[1,2-a]pyridine-2-carboxylic acid [5-(3-chloro-5-fluoro-phenyl)-1H-benzoimidazol-2-yl]-amide], the half-inhibitory concentration (IC50) came out at 0.57 µM.

For `Cc1c(OCCO)ccc2nc(C(=O)Nc3nc4cc(-c5cccc(C(F)(F)F)c5)ccc4[nH]3)cn12` [Example 7, 6-(2-Hydroxy-ethoxy)-5-methyl-imidazo[1,2-a]pyridine-2-carboxylic acid [5-(3-trifluoromethyl-phenyl)-1H-benzoimidazol-2-yl]-amide], the IC50 was determined as 0.1 µM.

The molecule `O=C(Nc1nc2cc(-c3cccc(C(F)(F)F)c3)ccc2[nH]1)c1cn2ccc(CNCCN3CCOCC3)cc2n1` [Example 210, 7-[(2-Morpholin-4-yl-ethylamino)-methyl]-imidazo[1,2-a]pyridine-2-carboxylic acid [5-(3-trifluoromethyl-phenyl)-1H-benzoimidazol-2-yl]-amide] came in with an IC50 of 0.18 µM.

`CC(C)CNCc1cccc2nc(C(=O)Nc3nc4cc(-c5cccc(C(F)(F)F)c5)ccc4[nH]3)cn12` [Example 164, 5-(Isobutylamino-methyl)-imidazo[1,2-a]pyridine-2-carboxylic acid [5-(3-trifluoromethyl-phenyl)-1H-benzoimidazol-2-yl]-amide] came in with an IC50 of 0.3 µM. This IC50 lies about 1.7-fold higher than the previous one.

In the case of `Cc1cccn2cc(C(=O)Nc3nc4cc(-c5cc(Cl)cc(C(F)(F)F)c5)ccc4[nH]3)nc12` [Example 86, 8-Methyl-imidazo[1,2-a]pyridine-2-carboxylic acid [5-(3-chloro-5-trifluoromethyl-phenyl)-1H-benzoimidazol-2-yl]-amide], the IC50 worked out at 0.28 µM.

`Cc1cccc2nc(C(=O)Nc3nc4cc(-c5ccc(C(F)(F)F)cc5Cl)ccc4[nH]3)cn12` [Example 91, 5-Methyl-imidazo[1,2-a]pyridine-2-carboxylic acid [5-(2-chloro-4-trifluoromethyl-phenyl)-1H-benzoimidazol-2-yl]-amide] showed an IC50 of 0.44 µM.

In the case of `CCN(C)Cc1cccc2nc(C(=O)Nc3nc4cc(-c5cccc(C(F)(F)F)c5)ccc4[nH]3)cn12` [Example 189, 5-[(Ethyl-methyl-amino)-methyl]-imidazo[1,2-a]pyridine-2-carboxylic acid [5-(3-trifluoromethyl-phenyl)-1H-benzoimidazol-2-yl]-amide], the IC50 came out at 0.95 µM.

On to `O=C(Nc1nc2cc(-c3cc(F)cc(Cl)c3)ccc2[nH]1)c1cn2c(N3CC[C@@H](O)C3)cccc2n1` [Example 8, 5-((R)-3-Hydroxy-pyrrolidin-1-yl)-imidazo[1,2-a]pyridine-2-carboxylic acid [5-(3-chloro-5-fluoro-phenyl)-1H-benzoimidazol-2-yl]-amide], for which half-maximal inhibition (IC50) required 0.2 µM. Compared with the last molecule, the IC50 is about 4.7-fold lower.

Molecule `Cc1cccn2cc(C(=O)Nc3nc4cc(-c5cc(F)cc(C(F)(F)F)c5)ccc4[nH]3)nc12` [Example 95, 8-Methyl-imidazo[1,2-a]pyridine-2-carboxylic acid [5-(3-fluoro-5-trifluoromethyl-phenyl)-1H-benzoimidazol-2-yl]-amide] had an IC50 of 0.32 µM.

By IC50 is commonly meant the concentration that inhibits the measured activity by half.

The values are drawn from patent US20120101093A1, “SUBSTITUTED IMIDAZO[1,2-A]PYRIDINE DERIVATIVES, PHARMACEUTICAL COMPOSITIONS, AND METHODS OF USE AS BETA-SECRETASE INHIBITORS” (HIGH POINT PHARMACEUTICALS, LLC, priority 2009, published 2012).
